Measurements published in PMC11522673 (Communications Biology, 2024).

Assays:
PsomCOR = target: T1, PsomCOR (Papaver somniferum, UniProt Q9SQ68); experiment: LC-MS product formation, Michaelis-Menten fit; settings: reduction; 1 mM NADPH; Bis-tris, optimized pH and temperature (Table S12)
T1 sequence (Q9SQ68 1-321): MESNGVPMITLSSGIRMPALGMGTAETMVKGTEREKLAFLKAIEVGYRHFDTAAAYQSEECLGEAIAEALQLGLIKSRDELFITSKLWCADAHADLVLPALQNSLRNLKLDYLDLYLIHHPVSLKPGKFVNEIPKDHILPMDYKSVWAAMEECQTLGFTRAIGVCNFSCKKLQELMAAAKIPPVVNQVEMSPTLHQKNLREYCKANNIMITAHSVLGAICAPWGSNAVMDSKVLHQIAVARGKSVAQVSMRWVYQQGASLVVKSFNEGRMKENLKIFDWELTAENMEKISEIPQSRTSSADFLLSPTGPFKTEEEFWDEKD

PapoCOR1 = experiment: LC-MS product formation, Michaelis-Menten fit; format: biochemical, Papaver apokrinomenon; settings: reduction; 1 mM NADPH; Bis-tris, optimized pH and temperature (Table S12)
PtriCOR3 = experiment: LC-MS product formation, Michaelis-Menten fit; format: biochemical, Papaver triniifolium; settings: reduction; 1 mM NADPH; Bis-tris, optimized pH and temperature (Table S12)
PglaCOR = experiment: LC-MS product formation, Michaelis-Menten fit; format: biochemical, Papaver glaucum; settings: reduction; 1 mM NADPH; Bis-tris, optimized pH and temperature (Table S12)
PlasDRR(REPI) = experiment: LC-MS product formation, substrate-inhibition fit; format: biochemical, Papaver lasiothrix; settings: reduction; 500 μM NADPH; Bis-tris, optimized pH and temperature (Table S12)
PglaDRR = experiment: LC-MS product formation, substrate-inhibition fit; format: biochemical, Papaver glaucum; settings: reduction; 500 μM NADPH; Bis-tris, optimized pH and temperature (Table S12)
PburDRR = experiment: LC-MS product formation, substrate-inhibition fit; format: biochemical, Papaver burseri; settings: reduction; 500 μM NADPH; Bis-tris, optimized pH and temperature (Table S12)
[1] = substrate: COc1ccc(CC2=[N+](C)CCc3cc(OC)c(O)cc32)cc1O; experiment: LC-MS product formation, substrate-inhibition fit; format: biochemical, Papaver somniferum; settings: reduction; 500 μM NADPH; Bis-tris, optimized pH and temperature (Table S12)

COc1ccc2c3c1O[C@H]1C(=O)C=C[C@H]4[C@@H](C2)N(C)CC[C@]314 [codeinone] showed a Km (PsomCOR) of 17.4 ± 1.6 µM, a Km (PapoCOR1) of 117 ± 17.8 µM and a Km (PtriCOR3) of 10 ± 0.9 µM. For the same molecule, the Km (PglaCOR) was 78.8 ± 5.6 µM.

For COc1ccc(CC2=[N+](C)CCc3cc(OC)c(O)cc32)cc1O [1,2-dehydroreticuline], the Km (PlasDRR(REPI)) was 12.3 ± 2.2 µM, the Km (PglaDRR) was 16.4 ± 2.3 µM and the Km (PburDRR) was 5.5 ± 1 µM.

B1: PsomDRR(REPI) (Papaver somniferum) (protein)
chain: MESSGVPVITLGSGKVMPVLGMGTFEKVGKGSERERLAILKAIEVGYRYFDTAAAYETEEVLGEAIAEALQLGLVKSRDELFISSMLWCTDAHADRVLLALQNSLRNLKLEYVDLYMLPFPASLKPGKITMDIPEEDICRMDYRSVWAAMEECQNLGFTKSIGVSNFSCKKLQELMATANIPPAVNQVEMSPAFQQKKLREYCNANNILVSAISVLGSNGTPWGSNAVLGSEVLKKIAMAKGKSVAQVSMRWVYEQGASLVVKSFSEERLRENLNIFDWELTKEDHEKIGEIPQCRILSAYFLVSPNGPFKSQEELWDDEA
With B1 the Km [1] was 7.3 ± 2.2 µM, the kcat [1] was 5.36 ± 1.71 s⁻¹ and the kcat/Km [1] was 735000 M⁻¹ s⁻¹.
